This experiment has as its system BDF1 mice, s.c. Lewis lung carcinoma, T/C %. The experiment in a line: NCI In Vivo Anticancer Drug Screen. Data for tumor model Lewis Lung Carcinoma (subcutaneous) in B6D2F1 (BDF1) mice. The gist of the method:
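Transplanted tumors grown in mice; compound vs vehicle dosing; endpoint survival or tumor size; ratio T/C.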

Values joined by “and” are separate entries in the source; they are usually repeats but may differ in a detail not shown here. Equal entries are not always repeated. Inconclusive results are not listed.

On to `[I][Hg][CH2]C1COCC([CH2][Hg][I])O1.[I][Hg][CH2]C1COCC([CH2][Hg][I])O1` (centres undefined), for which the T/C is, setting by setting: (endpoint: mean tumor weight, dose: 19.0 mg/kg/injection, schedule: Q01DX011 (ip), vehicle: other, higher = larger tumour) 80 % of control; (endpoint: mean tumor weight, dose: 29.0 mg/kg/injection, schedule: Q01DX011 (ip), vehicle: other, higher = larger tumour) 57 % of control; (endpoint: mean tumor weight, dose: 66.0 mg/kg/injection, schedule: Q01DX011 (ip), vehicle: other, higher = larger tumour) 36 % of control.
As to `O=NN(CCF)C(=O)NC1CCSc2ccccc21` (centres undefined), the T/C (endpoint: median survival time, dose: 24.0 mg/kg/injection, schedule: Q01DX001 (ip), vehicle: saline with Tween-80, higher = longer survival) was 88 % of control.
`C[C@H](N)C(=O)N[C@@H]1[C@H]2C(=C(O)C[C@@H](O)[C@@H]2O)C(=O)O[C@@H]1C`: the T/C (endpoint: mean tumor weight, dose: 300.0 mg/kg/injection, schedule: Q01DX011 (ip), vehicle: saline, higher = larger tumour) was 83 % of control; the T/C (endpoint: mean tumor weight, dose: 600.0 mg/kg/injection, schedule: Q01DX011 (ip), vehicle: saline, higher = larger tumour) was 60 % of control; the T/C (endpoint: mean tumor weight, dose: 1200.0 mg/kg/injection, schedule: Q01DX011 (ip), vehicle: saline, higher = larger tumour) is 89 % of control.
As for `c1cc[c]([Sn]([S][Sn]([c]2ccccc2)([c]2ccccc2)[c]2ccccc2)([c]2ccccc2)[c]2ccccc2)cc1`, the T/C by setting is: (endpoint: median survival time, dose: 50.0 mg/kg/injection, schedule: Q01DX009 (ip), vehicle: saline with Tween-80, higher = longer survival) 91 % of control; (endpoint: median survival time, dose: 100.0 mg/kg/injection, schedule: Q01DX009 (ip), vehicle: saline with Tween-80, higher = longer survival) 93 % of control; (endpoint: median survival time, dose: 200.0 mg/kg/injection, schedule: Q01DX009 (ip), vehicle: saline with Tween-80, higher = longer survival) 102 % of control.
On to `Nc1ncn(C2CC(O)C(CO)O2)c(=O)n1` (centres undefined), for which the T/C (endpoint: median survival time, dose: 0.05 mg/kg/injection, schedule: Q01DX009 (ip), vehicle: saline, higher = longer survival) is 102 % of control; the T/C (endpoint: median survival time, dose: 0.1 mg/kg/injection, schedule: Q01DX009 (ip), vehicle: saline, higher = longer survival) was 102 % of control and 109 % of control; the T/C (endpoint: median survival time, dose: 0.2 mg/kg/injection, schedule: Q01DX009 (ip), vehicle: saline, higher = longer survival) was 109 % of control and 112 % of control; the T/C (endpoint: median survival time, dose: 0.8 mg/kg/injection, schedule: Q01DX009 (ip), vehicle: Klucel (hydroxypropylcellulose) (HPC), higher = longer survival) is 167 % of control.
Take `CSCS(=O)C[C@H](CO)NC(=O)/C=C/c1c(C)[nH]c(=O)[nH]c1=O` (some centres undefined): the T/C (endpoint: median survival time, dose: 0.08 mg/kg/injection, schedule: Q01DX009 (ip), vehicle: water, higher = longer survival) was 94 % of control; the T/C (endpoint: median survival time, dose: 0.15 mg/kg/injection, schedule: Q01DX009 (ip), vehicle: water, higher = longer survival) is 109 % of control; the T/C (endpoint: median survival time, dose: 0.3 mg/kg/injection, schedule: Q01DX009 (ip), vehicle: water, higher = longer survival) was 97 % of control.
On to `O=C1NC2C(NC(=O)N2Cl)N1Cl` (centres undefined), for which the T/C was 97 % of control (endpoint: mean tumor weight, dose: 20.0 mg/kg/injection, schedule: Q01DX011 (ip), vehicle: saline, higher = larger tumour) and 114 % of control (endpoint: mean tumor weight, dose: 40.0 mg/kg/injection, schedule: Q01DX011 (ip), vehicle: saline, higher = larger tumour).
For the compound `O=NN(CCCl)C(=O)Nc1ccc(CCO)cc1`, the T/C is 43 % of control (endpoint: mean tumor weight, dose: 10.0 mg/kg/injection, schedule: Q01DX001 (ip), vehicle: carboxymethylcellulose (CMC), higher = larger tumour) and 22 % of control (endpoint: mean tumor weight, dose: 20.0 mg/kg/injection, schedule: Q01DX001 (ip), vehicle: carboxymethylcellulose (CMC), higher = larger tumour).
Consider `C/C=C/c1cc2n(c1)C(=O)c1cc(OC3OC(C)C(NC)C(C)(O)C3O)c(C)c(O)c1NC2O` (centres undefined), for which the T/C (endpoint: median survival time, dose: 2.0 micrograms/kg/injection, schedule: Q04DX003 (ip), vehicle: saline, higher = longer survival) was 102 % of control; the T/C (endpoint: median survival time, dose: 4.0 micrograms/kg/injection, schedule: Q04DX003 (ip), vehicle: saline, higher = longer survival) was 92 % of control; the T/C (endpoint: median survival time, dose: 8.0 micrograms/kg/injection, schedule: Q04DX003 (ip), vehicle: saline, higher = longer survival) is 103 % of control; the T/C (endpoint: median survival time, dose: 16.0 micrograms/kg/injection, schedule: Q04DX003 (ip), vehicle: saline, higher = longer survival) was 95 % of control.
On to `CS(=O)(=O)OCC#CCOS(C)(=O)=O`, for which the T/C is, setting by setting: (endpoint: mean tumor weight, dose: 16.0 mg/kg/injection, schedule: Q01DX011 (ip), vehicle: saline, higher = larger tumour) 91 % of control; (endpoint: mean tumor weight, dose: 32.0 mg/kg/injection, schedule: Q01DX011 (ip), vehicle: saline, higher = larger tumour) 63 % of control.
`C[C@]12CCC(=O)C=C1CC[C@@H]1[C@@H]2[C@@H](O)C[C@@]2(C)[C@H]1CC[C@]2(O)C(=O)COC(=O)CCC(=O)O`: the T/C is 76 % of control (endpoint: mean tumor weight, dose: 87.5 mg/kg/injection, schedule: Q01DX011 (sc), vehicle: steriod suspending solution, higher = larger tumour); 79 % of control (endpoint: mean tumor weight, dose: 175.0 mg/kg/injection, schedule: Q01DX011 (sc), vehicle: steriod suspending solution, higher = larger tumour); 66 % of control (endpoint: mean tumor weight, dose: 350.0 mg/kg/injection, schedule: Q01DX011 (sc), vehicle: steriod suspending solution, higher = larger tumour); 26 % of control (endpoint: mean tumor weight, dose: 500.0 mg/kg/injection, schedule: Q01DX011 (sc), vehicle: steriod suspending solution, higher = larger tumour); 72 % of control (endpoint: mean tumor weight, dose: 700.0 mg/kg/injection, schedule: Q01DX011 (sc), vehicle: steriod suspending solution, higher = larger tumour).
In the case of `COC(CCC(C)C1OC23CC(OC(=O)CC(C(C)O)OC(=O)CC(O)(O2)C(C)CC3(C)C)C1C)c1cccc(O)c1` (centres undefined), the T/C was 88 % of control (endpoint: median survival time, dose: 25.0 micrograms/kg/injection, schedule: Q01DX009 (ip), vehicle: other, higher = longer survival); 101 % of control (endpoint: median survival time, dose: 50.0 micrograms/kg/injection, schedule: Q01DX009 (ip), vehicle: other, higher = longer survival); 111 % of control (endpoint: median survival time, dose: 100.0 micrograms/kg/injection, schedule: Q01DX009 (ip), vehicle: other, higher = longer survival).
As to `O=C(O)CCC(=O)Nc1nccs1`, the T/C (endpoint: mean tumor weight, dose: 50.0 mg/kg/injection, schedule: Q01DX011 (ip), vehicle: carboxymethylcellulose (CMC), higher = larger tumour) is 77 % of control; the T/C (endpoint: mean tumor weight, dose: 100.0 mg/kg/injection, schedule: Q01DX011 (ip), vehicle: carboxymethylcellulose (CMC), higher = larger tumour) is 83 % of control; the T/C (endpoint: mean tumor weight, dose: 200.0 mg/kg/injection, schedule: Q01DX011 (ip), vehicle: carboxymethylcellulose (CMC), higher = larger tumour) is 68 % of control; the T/C (endpoint: mean tumor weight, dose: 400.0 mg/kg/injection, schedule: Q01DX011 (ip), vehicle: carboxymethylcellulose (CMC), higher = larger tumour) was 101 % of control.
Turning to `O=[N+]([O-])c1ccccc1CSc1ncnc2nc[nH]c12`, the T/C is, setting by setting: (endpoint: mean tumor weight, dose: 15.6 mg/kg/injection, schedule: Q01DX011 (ip), vehicle: other, higher = larger tumour) 38 % of control; (endpoint: mean tumor weight, dose: 31.3 mg/kg/injection, schedule: Q01DX011 (ip), vehicle: other, higher = larger tumour) 86 % of control; (endpoint: mean tumor weight, dose: 62.5 mg/kg/injection, schedule: Q01DX011 (ip), vehicle: other, higher = larger tumour) 82 % of control; (endpoint: mean tumor weight, dose: 125.0 mg/kg/injection, schedule: Q01DX011 (ip), vehicle: other, higher = larger tumour) 41 % of control.
For the compound `CC1OC(=O)C(C(C)C)NC(=O)C(C(C)C)OC(=O)C(C(C)C)NC(=O)C(C)OC(=O)C(C(C)C)NC(=O)C(C(C)C)OC(=O)C(C(C)C)NC(=O)C(C)OC(=O)C(C(C)C)NC(=O)C(C(C)C)OC(=O)C(C(C)C)NC1=O` (centres undefined), the T/C was 100 % of control (endpoint: median survival time, dose: 0.31 mg/kg/injection, schedule: Q01DX009 (ip), vehicle: saline with Tween-80, higher = longer survival); 103 % of control (endpoint: median survival time, dose: 0.62 mg/kg/injection, schedule: Q01DX009 (ip), vehicle: saline with Tween-80, higher = longer survival); 94 % of control (endpoint: median survival time, dose: 0.75 mg/kg/injection, schedule: Q01DX009 (ip), vehicle: Klucel (hydroxypropylcellulose) (HPC), higher = longer survival); 109 % of control (endpoint: median survival time, dose: 1.25 mg/kg/injection, schedule: Q01DX009 (ip), vehicle: saline with Tween-80, higher = longer survival); 86 % of control (endpoint: median survival time, dose: 1.5 mg/kg/injection, schedule: Q01DX009 (ip), vehicle: Klucel (hydroxypropylcellulose) (HPC), higher = longer survival); 86 % of control (endpoint: median survival time, dose: 2.5 mg/kg/injection, schedule: Q01DX009 (ip), vehicle: saline with Tween-80, higher = longer survival). Moreover, the T/C by setting is: (endpoint: median survival time, dose: 3.0 mg/kg/injection, schedule: Q01DX009 (ip), vehicle: Klucel (hydroxypropylcellulose) (HPC), higher = longer survival) 101 % of control; (endpoint: median survival time, dose: 6.0 mg/kg/injection, schedule: Q01DX009 (ip), vehicle: Klucel (hydroxypropylcellulose) (HPC), higher = longer survival) 100 % of control; (endpoint: median survival time, dose: 8.0 mg/kg/injection, schedule: Q01DX009 (ip), vehicle: saline with Tween-80, higher = longer survival) 114 % of control; (endpoint: median survival time, dose: 12.0 mg/kg/injection, schedule: Q01DX009 (ip), vehicle: saline with Tween-80, higher = longer survival) 112 % of control; (endpoint: median survival time, dose: 15.0 mg/kg/injection, schedule: Q04DX003 (ip), vehicle: saline with Tween-80, higher = longer survival) 106 % of control; (endpoint: median survival time, dose: 20.0 mg/kg/injection, schedule: Q01DX001 (ip), vehicle: saline with Tween-80, higher = longer survival) 123 % of control. The T/C (endpoint: median survival time, dose: 20.0 mg/kg/injection, schedule: Q04DX003 (ip), vehicle: saline with Tween-80, higher = longer survival) is 112 % of control; the T/C (endpoint: median survival time, dose: 30.0 mg/kg/injection, schedule: Q01DX001 (ip), vehicle: saline with Tween-80, higher = longer survival) was 112 % of control; the T/C (endpoint: median survival time, dose: 30.0 mg/kg/injection, schedule: Q04DX003 (ip), vehicle: saline with Tween-80, higher = longer survival) was 115 % of control; the T/C (endpoint: median survival time, dose: 45.0 mg/kg/injection, schedule: Q01DX001 (ip), vehicle: saline with Tween-80, higher = longer survival) is 119 % of control.
In the case of `CCCCCC(CN(C)C)C(O)/C=C/c1ccccc1Cl` (centres undefined), the T/C runs as follows: (endpoint: median survival time, dose: 3.12 mg/kg/injection, schedule: Q01DX009 (ip), vehicle: saline, higher = longer survival) 99 % of control; (endpoint: median survival time, dose: 6.25 mg/kg/injection, schedule: Q01DX009 (ip), vehicle: saline, higher = longer survival) 95 % of control; (endpoint: median survival time, dose: 12.5 mg/kg/injection, schedule: Q01DX009 (ip), vehicle: saline, higher = longer survival) 92 % of control; (endpoint: median survival time, dose: 25.0 mg/kg/injection, schedule: Q01DX009 (ip), vehicle: saline, higher = longer survival) 99 % of control; (endpoint: median survival time, dose: 50.0 mg/kg/injection, schedule: Q01DX009 (ip), vehicle: saline, higher = longer survival) 108 % of control.

(Values after PubChem BioAssay AID270 (DTP/NCI, 2004).)
